Reference: patent US20230091047A1 (priority 2019, published 2023)
Where two headings read alike, the source gives them in different places.

Key:
[1] = system: HBV (HepG2.117 cell line, inducibly HBV producing); test: Anti-HBV activity: intracellular HBV DNA by real-time PCR in HepG2.117 cells after 3 days of treatment; assay type: cell-based, hepatitis B virus; conditions: Hepatitis B virus, HepG2.117, 72 h, read-out: EC50 (μM, mean value)
Outline: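 Inducible HBV-producing HepG2.117 line (Tet-off); 3-day exposure to serially diluted compound after induction; real-time PCR of intracellular viral DNA.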

in vitro = assay type: cell-based; conditions: human, HepG2 or HepG2.117 cells, 3-days incubation (unmarked values), ATPlite; mean value
Outline: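 Luminescent ATP quantitation served as the viability endpoint following a 3- or 4-day incubation with test compounds.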

[2] = HepG2.117 cells, 3 days of treatment, intracellular HBV DNA by real-time PCR, mean value

SMILES	EC50 [1, 2] [µM]	CC50 at 3 days (in vitro) [µM]	EC50 [1] [µM]
COc1ccc(CNc2nc3c(c(=O)[nH]2)CCN(C(=O)c2ccc(Cl)c(F)c2)C3)cc1 [Compound C106, 7-(4-chloro-3-fluorobenzoyl)-2-{[(4-methoxyphenyl)methyl]amino}-5,6,7,8-tetrahydropyrido[3,4-d]pyrimidin-4(3H)-one]	21.1	27.1	
COc1ccc(CNc2nc3c(c(=O)n2-c2ccn[nH]2)CCN(C(=O)c2ccc(Cl)c(Cl)c2)C3)cc1 [Compound C107, 7-(3,4-dichlorobenzoyl)-2-{[(4-methoxyphenyl)methyl]amino}-3-(1H-pyrazol-5-yl)-5,6,7,8-tetrahydropyrido[3,4-d]pyrimidin-4(3H)-one]	1.78	22.6	
COc1ccc(CNc2nc3c(c(=O)n2-c2ccnn2C)CCN(C(=O)c2ccc(Cl)c(Cl)c2)C3)cc1 [Compound C108, 7-(3,4-dichlorobenzoyl)-2-{[(4-methoxyphenyl)methyl]amino}-3-(1-methyl-1H-pyrazol-5-yl)-5,6,7,8-tetrahydropyrido[3,4-d]pyrimidin-4(3H)-one]	1.87	26.5	
COc1ccc(CNc2nc3c(c(=O)n2-c2ccc(S(C)(=O)=O)cc2)CC(c2ccc(F)cc2)N(C(=O)c2ccc(Cl)c(Cl)c2)C3)cc1 (centres unmarked) [Compound C109, 7-(3,4-dichlorobenzoyl)-6-(4-fluorophenyl)-3-[4-(methanesulfonyl)phenyl]-2-{[(4-methoxyphenyl)methyl]amino}-5,6,7,8-tetrahydropyrido[3,4-d]pyrimidin-4(3H)-one]		> 50	2.11
CC(C)Nc1nc2c(c(=O)n1-c1ccc(S(C)(=O)=O)cc1)CC(c1ccc(F)cc1)N(C(=O)c1ccc(Cl)c(Cl)c1)C2 (centres unmarked) [Compound C110, 7-(3,4-dichlorobenzoyl)-6-(4-fluorophenyl)-3-[4-(methanesulfonyl)phenyl]-2-[(propan-2-yl)amino]-5,6,7,8-tetrahydropyrido[3,4-d]pyrimidin-4(3H)-one]	> 50	> 50	
COc1ccc(CNc2nc3c(c(=O)n2CCNS(C)(=O)=O)CCN(C(=O)c2ccc(Cl)c(Cl)c2)C3)cc1 [Compound C111, N-{2-[7-(3,4-dichlorobenzoyl)-2-{[(4-methoxyphenyl)methyl]amino}-4-oxo-5,6,7,8-tetrahydropyrido[3,4-d]pyrimidin-3(4H)-yl]ethyl}methanesulfonamide]	7.64	> 50	
CC(C)Nc1nc2c(c(=O)n1CCNS(C)(=O)=O)CCN(C(=O)c1ccc(Cl)c(Cl)c1)C2 [Compound C112, N-{2-[7-(3,4-dichlorobenzoyl)-4-oxo-2-[(propan-2-yl)amino]-5,6,7,8-tetrahydropyrido[3,4-d]pyrimidin-3(4H)-yl]ethyl}methanesulfonamide]	11.5	> 50	
COc1ccc(CNc2nc3c(c(=O)n2-c2cnccc2C)CCN(C(=O)c2ccc(Cl)c(Cl)c2)C3)cc1 [Compound C113, 7-(3,4-dichlorobenzoyl)-2-{[(4-methoxyphenyl)methyl]amino}-3-(4-methylpyridin-3-yl)-5,6,7,8-tetrahydropyrido[3,4-d]pyrimidin-4(3H)-one]	0.65	19.4	
Cc1ccncc1-n1c(NC(C)C)nc2c(c1=O)CCN(C(=O)c1ccc(Cl)c(Cl)c1)C2 [Compound C114, 7-(3,4-dichlorobenzoyl)-3-(4-methylpyridin-3-yl)-2-[(propan-2-yl)amino]-5,6,7,8-tetrahydropyrido[3,4-d]pyrimidin-4(3H)-one]	1.78	> 50	
COc1ccc(CNc2nc3c(c(=O)[nH]2)CCN(C(=O)c2ccc(Cl)cc2)C3)cc1 [Compound C115, 7-(4-chlorobenzoyl)-2-{[(4-methoxyphenyl)methyl]amino}-5,6,7,8-tetrahydropyrido[3,4-d]pyrimidin-4(3H)-one]	37.1	42.8	
COc1ccc(CNc2nc3c(c(=O)[nH]2)CCN(C(=O)c2ccc(Br)cc2)C3)cc1 [Compound C116, 7-(4-bromobenzoyl)-2-{[(4-methoxyphenyl)methyl]amino}-5,6,7,8-tetrahydropyrido[3,4-d]pyrimidin-4(3H)-one]	21.6	27.4	
COc1ccc(CNc2nc3c(c(=O)[nH]2)CCN(C(=O)c2ccc(I)cc2)C3)cc1 [Compound C117, 7-(4-iodobenzoyl)-2-{[(4-methoxyphenyl)methyl]amino}-5,6,7,8-tetrahydropyrido[3,4-d]pyrimidin-4(3H)-one]	9.61	43.5	
COc1ccc(CNc2nc3c(c(=O)[nH]2)CCN(C(=O)c2ccc(C(F)(F)F)cc2)C3)cc1 [Compound C118, 2-{[(4-methoxyphenyl)methyl]amino}-7-[4-(trifluoromethyl)benzoyl]-5,6,7,8-tetrahydropyrido[3,4-d]pyrimidin-4(3H)-one]	22	39	
COc1ccc(CNc2nc3c(c(=O)n2C2CCS(=O)(=O)CC2)CCN(C(=O)c2ccc(Cl)c(Cl)c2)C3)cc1 [Compound C119, 4-[7-(3,4-dichlorobenzoyl)-2-{[(4-methoxyphenyl)methyl]amino}-4-oxo-5,6,7,8-tetrahydropyrido[3,4-d]pyrimidin-3(4H)-yl]-1λ^6-thiane-1,1-dione]	6.95	33.5	
CC(C)Nc1nc2c(c(=O)n1C1CCS(=O)(=O)CC1)CCN(C(=O)c1ccc(Cl)c(Cl)c1)C2 [Compound C120, 4-[7-(3,4-dichlorobenzoyl)-4-oxo-2-[(propan-2-yl)amino]-5,6,7,8-tetrahydropyrido[3,4-d]pyrimidin-3(4H)-yl]-1λ^6-thiane-1,1-dione]	7.36	> 50	
CCOC(=O)c1ccc(-n2c(NCc3ccc(OC)cc3)nc3c(c2=O)CCN(C(=O)c2ccc(Cl)c(Cl)c2)C3)cc1 [Compound C121, ethyl 4-[7-(3,4-dichlorobenzoyl)-2-{[(4-methoxyphenyl)methyl]amino}-4-oxo-5,6,7,8-tetrahydropyrido[3,4-d]pyrimidin-3(4H)-yl]benzoate]	1.55	> 50	
CC(C)Nc1nc2c(c(=O)n1-c1ccncc1)CCN(C(=O)c1ccc(Cl)c(Cl)c1)C2 [Compound C122, 7-(3,4-dichlorobenzoyl)-2-[(propan-2-yl)amino]-3-(pyridin-4-yl)-5,6,7,8-tetrahydropyrido[3,4-d]pyrimidin-4(3H)-one]	1.44	> 50	
COc1ccc(CNc2nc3c(c(=O)n2-c2ccncc2)CCN(C(=O)c2ccc(Cl)c(Cl)c2)C3)cc1 [Compound C123, 7-(3,4-dichlorobenzoyl)-2-{[(4-methoxyphenyl)methyl]amino}-3-(pyridin-4-yl)-5,6,7,8-tetrahydropyrido[3,4-d]pyrimidin-4(3H)-one]	1.23	24.4	
COc1ccc(CNc2nc3c(c(=O)n2-c2ccc(C(=O)O)cc2)CCN(C(=O)c2ccc(Cl)c(Cl)c2)C3)cc1 [Compound C124, 4-[7-(3,4-dichlorobenzoyl)-2-{[(4-methoxyphenyl)methyl]amino}-4-oxo-5,6,7,8-tetrahydropyrido[3,4-d]pyrimidin-3(4H)-yl]benzoic acid]	36.8	> 50	
COc1ccc(CNc2nc3c(c(=O)n2-c2ccc(Br)cc2)CCN(C(=O)c2ccc(Cl)c(Cl)c2)C3)cc1 [Compound C125, 3-(4-bromophenyl)-7-(3,4-dichlorobenzoyl)-2-{[(4-methoxyphenyl)methyl]amino}-5,6,7,8-tetrahydropyrido[3,4-d]pyrimidin-4(3H)-one]	1.64	> 50	
COc1ccc(CNc2nc3c(c(=O)n2-c2ccc(C(C)=O)cc2)CCN(C(=O)c2ccc(Cl)c(Cl)c2)C3)cc1 [Compound C126, 3-(4-acetylphenyl)-7-(3,4-dichlorobenzoyl)-2-{[(4-methoxyphenyl)methyl]amino}-5,6,7,8-tetrahydropyrido[3,4-d]pyrimidin-4(3H)-one]	1.51	> 50	
CC(=O)c1ccc(-n2c(NC(C)C)nc3c(c2=O)CCN(C(=O)c2ccc(Cl)c(Cl)c2)C3)cc1 [Compound C127, 3-(4-acetylphenyl)-7-(3,4-dichlorobenzoyl)-2-[(propan-2-yl)amino]-5,6,7,8-tetrahydropyrido[3,4-d]pyrimidin-4(3H)-one]	1.28	> 50	
COc1ccc(CNc2nc3c(c(=O)n2-c2ccc(N4CCOCC4)cc2)CCN(C(=O)c2ccc(Cl)c(Cl)c2)C3)cc1 [Compound C128, 7-(3,4-dichlorobenzoyl)-2-{[(4-methoxyphenyl)methyl]amino}-3-[4-(morpholin-4-yl)phenyl]-5,6,7,8-tetrahydropyrido[3,4-d]pyrimidin-4(3H)-one]	1.06	> 50	
CNC(=O)c1ccc(-n2c(NCc3ccc(OC)cc3)nc3c(c2=O)CCN(C(=O)c2ccc(Cl)c(Cl)c2)C3)cc1 [Compound C129, 4-[7-(3,4-dichlorobenzoyl)-2-{[(4-methoxyphenyl)methyl]amino}-4-oxo-5,6,7,8-tetrahydropyrido[3,4-d]pyrimidin-3(4H)-yl]-N-methylbenzamide]	0.44	44.4	
CC(C)Nc1nc2c(c(=O)n1-c1ccc(N3CCOCC3)cc1)CCN(C(=O)c1ccc(Cl)c(Cl)c1)C2 [Compound C130, 7-(3,4-dichlorobenzoyl)-3-[4-(morpholin-4-yl)phenyl]-2-[(propan-2-yl)amino]-5,6,7,8-tetrahydropyrido[3,4-d]pyrimidin-4(3H)-one]	0.48	> 50	
